Data from PubChem BioAssay (NCI).
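Method: 48-hour compound exposure of cells in 96-well plates, five concentrations, linear interpolation of endpoints. Here, GI50 denotes the concentration required for 50% inhibition of growth. TGI: total growth inhibition.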

Key:
Assay in all cases: DTP human tumour cell line panel, 48 h
CCRF-CEM leukemia = system: CCRF-CEM leukemia
NCI-H23 lung = system: NCI-H23 lung
OVCAR-5 ovarian = system: OVCAR-5 ovarian
OVCAR-8 ovarian = system: OVCAR-8 ovarian
RXF 393 renal = system: RXF 393 renal
SF-268 CNS = system: SF-268 CNS
SF-295 CNS = system: SF-295 CNS
SN12C renal = system: SN12C renal
U251 CNS = system: U251 CNS
SR leukemia = system: SR leukemia

Structure (SMILES) | GI50 (CCRF-CEM leukemia) [µM] | TGI (CCRF-CEM leukemia) [µM] | GI50 (NCI-H23 lung) [µM] | TGI (NCI-H23 lung) [µM] | GI50 (OVCAR-5 ovarian) [µM] | TGI (OVCAR-5 ovarian) [µM] | GI50 (OVCAR-8 ovarian) [µM] | TGI (OVCAR-8 ovarian) [µM] | GI50 (RXF 393 renal) [µM] | TGI (RXF 393 renal) [µM] | GI50 (SF-268 CNS) [µM] | TGI (SF-268 CNS) [µM] | GI50 (SF-295 CNS) [µM] | TGI (SF-295 CNS) [µM] | GI50 (SN12C renal) [µM] | TGI (SN12C renal) [µM] | GI50 (U251 CNS) [µM] | TGI (U251 CNS) [µM] | TGI (SR leukemia) [µM] | GI50 (SR leukemia) [µM]
Cc1cncc(-c2nc(NCCc3c[nH]c4ccccc34)c3ncn(C(C)C)c3n2)c1 | 2.99 | 9.84 | 5.34 | 19.4 | 3.45 | 18.4 | 4.6 | > 100 | 2.54 | 11.2 | 5.93 | 38.6 | 2.74 | 10.8 | 3.67 | 32.4 | 4.96 | 39.6 |  | 
N#CC(C#N)=Cc1ccc(C(O)P(=O)(O)O)cc1 (centres undefined) |  | > 100 |  | > 100 |  | > 100 |  | > 100 |  |  |  | > 100 |  | > 100 |  | > 100 |  | > 100 |  | 
O=C(CC(=O)N1N=C(n2ccc3ccccc32)CC1c1ccccc1)Nc1ccc(Cl)cc1 (centres undefined) |  | > 100 |  | > 100 |  | > 100 |  | > 100 |  | > 100 |  | > 100 |  | > 100 |  | > 100 |  | > 100 |  | 
CC12CC/C(=N/NC(N)=O)C3C1CCCC32 |  | > 100 |  | > 100 |  |  |  | > 100 |  |  |  | > 100 |  | > 100 |  | > 100 |  | > 100 | > 100 | 
CS(=O)(=O)c1ccc2c(c1)C(=O)c1c-2n(CCCBr)c(=O)c2cc([N+](=O)[O-])ccc12 | 0.758 | 30.7 | 7.87 | > 100 | > 100 | > 100 | 29.3 | > 100 |  |  | 9.59 | > 100 | 2.07 | 33.5 | 6.88 | > 100 | 8.76 | > 100 | > 100 | 1.06
CCC1(OC(=O)CNC)C(=O)OCc2c1cc1n(c2=O)Cc2cc3ccccc3nc2-1 (centres undefined) |  | 0.468 |  | 0.11 |  | 0.221 |  | > 24.4 |  | 0.115 |  | 0.709 |  |  |  | 0.849 |  | 0.293 |  | 
CCOC(=O)NC(=O)c1cn(CCCCCCCCCCC(=O)NCCCN2CCN(CCCNC(=O)CCCCCCCCCCn3cc(C(=O)NC(=O)OCC)c(=O)[nH]c3=O)CC2)c(=O)[nH]c1=O |  | > 100 |  | > 100 |  | > 100 |  | > 100 |  |  |  | > 100 |  | > 100 |  | > 100 |  | > 100 | > 100 | 
c1ccc(COCC[P+](c2ccccc2)(c2ccccc2)c2ccccc2)cc1 | 1.36 | 14.1 | 0.664 | 6.75 | 2.85 | > 100 | 1.67 | 10.8 |  |  | 3.17 | 23.1 | 1.39 | 6.64 | 2.3 | 11.3 | 0.869 | 11.7 | 11 | 0.725
COC1=CC(c2ccc[nH]2)=N/C1=C\c1[nH]c(C)c(C(=O)Oc2ccccc2)c1C | 0.0625 | > 100 | 0.227 | 1.95 | 0.389 | 1.99 | 0.288 | 1.45 | 0.267 | 1.78 |  |  | 0.329 | 1.95 | 0.387 | 2.41 | 0.148 | 1.6 | 1.11 | 0.2
COc1cccc(CCNC(=O)CC(c2ccccc2)(c2ccccc2)c2ccccc2)c1 | 8.16 | > 100 |  |  | 11.7 | > 100 | 4.98 | 47.7 |  |  | 15 | > 100 | 4.36 | > 100 |  |  | 4.86 | 55.6 |  | 
Cc1cc(I)cc(CNCCN2CCOCC2)c1O |  |  | 27.5 | > 100 | 59.8 | > 100 | > 100 | > 100 | 48.5 | > 100 | 93.2 | > 100 | 36 | > 100 | > 100 | > 100 | > 100 | > 100 | > 100 | 90.2
O=C1c2cccc([N+](=O)[O-])c2C(=O)c2nccnc21 |  | 5.65 |  | 2.98 |  | 9.6 |  | 7.09 |  | 3.71 |  |  |  | 3.5 |  | 3.64 |  | 4.34 | 5.04 | 
C/C=C(\C)c1cc(=O)c2c(C)cc3c(c2o1)C(OC)(OC(C)=O)c1c(O)c(C2CC(C)(N(C)C)C(OC(C)=O)C(C)O2)cc(C2CC(N(C)C)C(OC(C)=O)C(C)O2)c1C3=O (centres undefined) |  | 10.1 |  | 2.42 |  | 9.75 |  |  |  |  |  | 4.89 |  | 14.6 |  | 5.23 |  | > 20.4 | 0.842 | 
O=C1Nc2ccc(O)cc2/C1=C\c1ccncc1 |  |  | 25.1 | 62.4 | 27.2 | 57 | 25.4 | > 100 |  |  | 12 | 36.3 | 25.9 | 77.8 | 16.2 | 44.3 | 10.3 | 23.1 | 17.8 | 3.75
COC(=O)C1CC(c2ccc(Cl)cc2)=NO1 (centres undefined) |  | > 100 |  | > 100 |  | > 100 |  | > 100 |  |  |  | > 100 |  | > 100 |  | > 100 |  | > 100 | > 100 | 
Cc1ccc2nc(Sc3c([N+](=O)[O-])ncn3C)[nH]c2c1 |  |  |  | 50.5 |  | > 100 |  | 41 |  | 39.5 |  | 83.9 |  | > 100 |  | 35.8 |  | > 100 | 42.2 | 
COc1cccc(N2C(=O)/C(=C/c3ccc(N(CCC#N)CCC#N)cc3)N=C2c2cc([N+](=O)[O-])ccc2Cl)c1 |  | > 100 |  | > 100 |  | > 100 |  | > 100 |  |  |  | > 100 |  | > 100 |  | > 100 |  | > 100 | > 100 | 
